Assay: Single oral dose (5 mg/kg) pharmacokinetics of firocoxib in koalas, plasma HPLC, non-compartmental analysis;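 also: healthy adult koalas, three per sex, anaesthetised the day before dosing for cephalic vein catheterisation, with serial blood draws and firocoxib in plasma quantified by HPLC using fluorescence detection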
Details: for AUC(0-t): AUC0-t; for MRT inf: MRT0-inf; for k el: ke; for concentration at 1 h / concentration at 2 h / concentration at 4 h / concentration at 8 h: koala (Phascolarctos cinereus)
[1] = arithmetic mean, female koalas (n = 3), single oral 5 mg/kg
[2] = arithmetic mean, male koalas (n = 3), single oral 5 mg/kg
[3] = arithmetic mean, n = 6 koalas, single oral 5 mg/kg
[4] = both, plasma, po, 5 mg/kg, arithmetic mean, n = 6 koalas, single oral 5 mg/kg
[5] = both, plasma, po, 5 mg/kg, harmonic mean, n = 6 koalas, single oral 5 mg/kg
[6] = both, plasma, po, 5 mg/kg, median (range), n = 6 koalas, single oral 5 mg/kg
[7] = female, plasma, po, 5 mg/kg, Firocoxib plasma concentration, K4 female, single oral 5 mg/kg
[8] = female, plasma, po, 5 mg/kg, Firocoxib plasma concentration, K5 female, single oral 5 mg/kg
[9] = female, plasma, po, 5 mg/kg, Firocoxib plasma concentration, K6 female, single oral 5 mg/kg
[10] = female, koala, plasma, po, 5 mg/kg, Firocoxib plasma concentration, K4 female, single oral 5 mg/kg
[11] = female, koala, plasma, po, 5 mg/kg, Firocoxib plasma concentration, K5 female, single oral 5 mg/kg
[12] = female, koala, plasma, po, 5 mg/kg, Firocoxib plasma concentration, K6 female, single oral 5 mg/kg
[13] = female, plasma, po, 5 mg/kg, K4 female, single oral 5 mg/kg
[14] = female, plasma, po, 5 mg/kg, K5 female, single oral 5 mg/kg
[15] = female, plasma, po, 5 mg/kg, K6 female, single oral 5 mg/kg
[16] = female, plasma, po, 5 mg/kg, arithmetic mean, female koalas (n = 3), single oral 5 mg/kg
[17] = female, plasma, po, 5 mg/kg, harmonic mean, female koalas (n = 3), single oral 5 mg/kg

From the text: Six mature koalas (3 males, 3 females) with median (range) body weights and ages of 9.2 kg, (7.5 to 9.7 kg) and 4.8 years (4.3 to 9.1 years), respectively, were recruited from the Taronga Zoo colony (Mosman, NSW, Australia). These koalas were clinically normal based on regular physical examinations, haematological and biochemical analyte values. During the study, koalas were housed singly and supplied with various Eucalyptus spp. foliage and water ad-libitum. […] No animals were sacrificed; the animals were returned to the colony immediately after firocoxib administration and blood sampling. In order to minimise stress, intravenous catheterisation for sequential blood sampling was performed under general anaesthesia.
The day prior to drug administration and blood collection, the koalas were anaesthetised with alfaxalone (Alfaxan, Jurox, Pty Ltd, Rutherford, NSW, Australia) at 3 mg/kg administered intramuscularly (i.m.) and maintained under anaesthesia on isoflurane in 100% oxygen via a face mask for placement of a 20 gauge, 1 ¼ inch intravenous catheter into the cephalic vein. A short T-connector extension set (Codan, Santa Ana, CA, USA) and cap was attached to the catheter and flushed with saline. The extension tube, cap and catheter were secured with tape and bandage, for serial blood collection. Blood (5 mL) was collected at the time of anaesthesia in a lithium heparin tube to establish a baseline (t = 0 h).
Firocoxib was administered as a single oral dose of 5 mg/kg as crushed tablets made into a paste with Vetafarm Koala Crittacare (Wagga Wagga, NSW) and water.
Samples were centrifuged at 1500 x g for 10 minutes, within 1 h of collection; the plasma was immediately stored at –80 °C and protected from light until drug quantification. […] Clinical observations for the presence of adverse effects in the animals treated included measurement of vital signs, appetite, body weight, faecal consistency and overall behaviour and mobility.
Quantification of firocoxib and visualisation of metabolites in plasma was achieved by HPLC with fluorescence detection modified from a published method [12]. The HPLC system consisted of a Shimadzu LC-20AT solvent delivery unit, DGU-20A degasser, a SIL-20A HT auto injector, an SPD-20A UV detector and RF-10A XL fluorescence detector (Shimadzu, Rydalmere, NSW, Australia) and column oven (CTO-20A). […] Chromatographic separation was performed with a Supelco, Discovery C18, (25 cm x 4.6 mm, 5 µm) column (Merck KGaA, Darmstadt, Germany) with a 1-mm Opti-guard C18 pre-column (Choice Analytical, Thornleigh, NSW, Australia) at ambient temperature. […] Fluorescence detection excitation and emission wavelengths were 280 nm and 375 nm, respectively.
For sample preparation 200 μL of each of the following: plasma samples collected from koalas administered firocoxib, standards prepared for the standard curves and the QC samples; were extracted twice by mixing with 800 μL of ethyl acetate. The extracted organic portion (1.6 mL) was dried under vacuum in a Speed Vac Concentrator (Thermo Scientific, MA, USA) at 35 °C for 1 h, reconstituted with 100 μL of acetonitrile, and finally 10 μL of the reconstituted sample was injected into the HPLC system.
The concentration of each QC sample was repeated three times with the accuracy and precision calculated on each of the triplicates. The mean accuracy ± standard deviation (SD) were calculated using the formula [13]:
Firocoxib plasma concentrations from the initial oral administration underwent non-compartmental analysis. The peak concentration (Cmax) and the time reached (Tmax) were obtained directly from the measured concentrations. The elimination half-life (t1/2) was determined by ln2/ke where ke is the elimination rate constant which is the inverse slope of the elimination or terminal part of the semi-log curve.

AUC 0-t/AUC0-inf (K1 male, single oral 5 mg/kg): 0.72
AUMC 0-inf (K1 male, single oral 5 mg/kg): 56998 ng/mL*h^2
Cl/F (K1 male, single oral 5 mg/kg): 19.0 L/h
ka (absorption constant) (K1 male, single oral 5 mg/kg): 0.11 h⁻¹
AUC 0-t/AUC0-inf (K2 male, single oral 5 mg/kg): 0.99
AUMC 0-inf (K2 male, single oral 5 mg/kg): 11422 ng/mL*h^2
Cl/F (K2 male, single oral 5 mg/kg): 30.5 L/h
ka (absorption constant) (K2 male, single oral 5 mg/kg): 0.21 h⁻¹
AUC 0-t/AUC0-inf (K3 male, single oral 5 mg/kg): 0.99
AUMC 0-inf (K3 male, single oral 5 mg/kg): 13436.9 ng/mL*h^2
Cl/F (K3 male, single oral 5 mg/kg): 24.6 L/h
ka (absorption constant) (K3 male, single oral 5 mg/kg): 0.17 h⁻¹
AUC 0-t/AUC0-inf (K4 female, single oral 5 mg/kg): 0.98
AUMC 0-inf (K4 female, single oral 5 mg/kg): 8500.1 ng/mL*h^2
Cl/F (K4 female, single oral 5 mg/kg): 38.5 L/h
ka (absorption constant) (K4 female, single oral 5 mg/kg): 0.43 h⁻¹
AUC 0-t/AUC0-inf (K5 female, single oral 5 mg/kg): 0.94
AUMC 0-inf (K5 female, single oral 5 mg/kg): 11402.2 ng/mL*h^2
Cl/F (K5 female, single oral 5 mg/kg): 49.2 L/h
ka (absorption constant) (K5 female, single oral 5 mg/kg): 0.25 h⁻¹
AUC 0-t/AUC0-inf (K6 female, single oral 5 mg/kg): 0.83
AUMC 0-inf (K6 female, single oral 5 mg/kg): 14183.2 ng/mL*h^2
Cl/F (K6 female, single oral 5 mg/kg): 87.5 L/h
ka (absorption constant) (K6 female, single oral 5 mg/kg): 0.25 h⁻¹
AUC 0-t/AUC0-inf [1]: 0.92
AUMC 0-inf [1]: 11361.8 ng/mL*h^2
Cl/F [1]: 58.4 L/h
ka [1]: 0.28 h⁻¹
AUC 0-t/AUC0-inf [2]: 0.90
AUMC 0-inf [2]: 27285.7 ng/mL*h^2
Cl/F [2]: 24.7 L/h
ka [2]: 0.19 h⁻¹
AUMC [3]: 19323.8 ng/mL*h ^ 2
Cl/F [3]: 41.6 L/h
ka [3]: 0.24 h⁻¹
AUC(0-inf) (both, plasma, po, 5 mg/kg, AUC0-inf, arithmetic mean, n = 6 koalas, single oral 5 mg/kg): 1480 ng·h/mL
AUC(0-inf) (both, plasma, po, 5 mg/kg, AUC0-inf, harmonic mean, n = 6 koalas, single oral 5 mg/kg): 1080 ng·h/mL
AUC(0-inf) (both, plasma, po, 5 mg/kg, AUC0-inf, median (range), n = 6 koalas, single oral 5 mg/kg): 1260 ng·h/mL
AUC(0-t) [4]: 1310 ng·h/mL
AUC(0-t) [5]: 974 ng·h/mL
AUC(0-t) [6]: 1240 ng·h/mL
Cmax [4]: 141 ng/mL
Cmax [5]: 79.2 ng/mL
Cmax [6]: 140 ng/mL
MRT inf [4]: 12 h
MRT inf [5]: 10.7 h
MRT inf [6]: 12.2 h
Tmax [4]: 4.33 h
Tmax [5]: 3.69 h
Tmax [6]: 4 h
Tmax (both, plasma, po, 5 mg/kg, median value, both sexes, koala (6), PO 5 mg/kg): 4 h
Vd/F (both, plasma, po, 5 mg/kg, Vss/F, arithmetic mean, n = 6 koalas, single oral 5 mg/kg): 674 L
Vd/F (both, plasma, po, 5 mg/kg, Vss/F, harmonic mean, n = 6 koalas, single oral 5 mg/kg): 332 L
Vd/F (both, plasma, po, 5 mg/kg, Vss/F, median (range), n = 6 koalas, single oral 5 mg/kg): 811 L
Vd/F (both, plasma, po, 5 mg/kg, Vz/F, arithmetic mean, n = 6 koalas, single oral 5 mg/kg): 582 L
Vd/F (both, plasma, po, 5 mg/kg, Vz/F, harmonic mean, n = 6 koalas, single oral 5 mg/kg): 230 L
Vd/F (both, plasma, po, 5 mg/kg, Vz/F, median (range), n = 6 koalas, single oral 5 mg/kg): 240 L
k el [4]: 3.89e-05 s⁻¹
k el [5]: 2.78e-05 s⁻¹
k el [6]: 4.17e-05 s⁻¹
half-life (both, plasma, po, 5 mg/kg, t1/2, arithmetic mean, n = 6 koalas, single oral 5 mg/kg): 7 h
half-life (both, plasma, po, 5 mg/kg, t1/2, harmonic mean, n = 6 koalas, single oral 5 mg/kg): 5.01 h
half-life (both, plasma, po, 5 mg/kg, t1/2, median (range), n = 6 koalas, single oral 5 mg/kg): 5.46 h
MRT inf (female, in vivo, po, 5 mg/kg, K6 female, single oral 5 mg/kg): 26.4 h
concentration at 1 h [7]: 8.27 ng/mL
concentration at 2 h [7]: 24.3 ng/mL
concentration at 4 h [7]: 89.3 ng/mL
concentration at 8 h [7]: 74.7 ng/mL
concentration at 1 h [8]: 28.6 ng/mL
concentration at 2 h [8]: 61.9 ng/mL
concentration at 4 h [8]: 51.8 ng/mL
concentration at 8 h [8]: 45.8 ng/mL
concentration at 1 h [9]: 7.89 ng/mL
concentration at 2 h [9]: 12.3 ng/mL
concentration at 4 h [9]: 28.9 ng/mL
concentration at 8 h [9]: 17.5 ng/mL
concentration at 0.25 h [10]: 0.78 ng/mL
concentration at 0.5 h [10]: 1.23 ng/mL
concentration at 12 h [10]: 40.2 ng/mL
concentration at 24 h [10]: 3.7 ng/mL
concentration at 0.25 h [11]: 3.74 ng/mL
concentration at 0.5 h [11]: 5.88 ng/mL
concentration at 12 h [11]: 23.3 ng/mL
concentration at 24 h [11]: 12.8 ng/mL
concentration at 36 h [11]: 3.83 ng/mL
concentration at 0.25 h [12]: 3.58 ng/mL
concentration at 0.5 h [12]: 10.6 ng/mL
concentration at 12 h [12]: 13.2 ng/mL
concentration at 24 h [12]: 3.78 ng/mL
concentration at 36 h [12]: 7.02 ng/mL
concentration at 48 h (female, koala, plasma, po, 5 mg/kg, Firocoxib plasma concentration, K6 female, 48 h, single oral 5 mg/kg): 3.83 ng/mL
AUC(0-inf) (female, plasma, po, 5 mg/kg, AUC0-inf, K4 female, single oral 5 mg/kg): 973 ng·h/mL
AUC(0-inf) (female, plasma, po, 5 mg/kg, AUC0-inf, K5 female, single oral 5 mg/kg): 868 ng·h/mL
AUC(0-inf) (female, plasma, po, 5 mg/kg, AUC0-inf, K6 female, single oral 5 mg/kg): 537 ng·h/mL
AUC(0-inf) (female, plasma, po, 5 mg/kg, AUC 0-inf, arithmetic mean, female koalas (n = 3), single oral 5 mg/kg): 793 ng·h/mL
AUC(0-inf) (female, plasma, po, 5 mg/kg, AUC 0-inf, harmonic mean, female koalas (n = 3), single oral 5 mg/kg): 742 ng·h/mL
AUC(0-t) [13]: 954 ng·h/mL
AUC(0-t) [14]: 820 ng·h/mL
AUC(0-t) [15]: 444 ng·h/mL
AUC(0-t) [16]: 739 ng·h/mL
AUC(0-t) [17]: 664 ng·h/mL
Cmax [13]: 89.3 ng/mL
Cmax [14]: 61.9 ng/mL
Cmax [15]: 28.9 ng/mL
Cmax [16]: 60.3 ng/mL
Cmax [17]: 48.4 ng/mL
SMILES: CC1(C)OC(=O)C(OCC2CC2)=C1c1ccc(S(C)(=O)=O)cc1 [firocoxib]

— article PMC12483202, “Pharmacokinetic profile of oral firocoxib in the koala (Phascolarctos cinereus)” (PLOS One, 2025)
